Laboratory results taken from paper PMC6934184, “Selective DNA-PKcs inhibition extends the therapeutic index of localized radiotherapy and chemotherapy” (The Journal of Clinical Investigation, 2019).

Target: T1, EEF2K (Homo sapiens, UniProt O00418)
T1 construct: purchased Thermo Fisher Scientific (Life Technologies) SelectScreen
Test: SelectScreen Z'LYTE
Format: biochemical
Procedure, shortened: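 NU5455 was profiled across the SelectScreen Broad panel of kinase activity and binding assays. Z'LYTE reactions such as CSF1R ran at apparent Km ATP, while the Adapta CAMK1 assay used ATP listed as 10. Values are given as percent.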

CN(C(=O)CN1CCOCC1)c1ccc2sc3c(-c4cccc5c(=O)cc(N6CC7CCC(C6)O7)oc45)cccc3c2c1 [NU5455]
inhibition at 1 µM: -2.4%
